Data taken from patent US10729668B2, “Ketobutyrate compounds and compositions for treating age-related symptoms and diseases” (The Regents of the University of California, priority 2014, dated 2020).

How the values were obtained:
[1] = test system: ETC Complex I diaphorase (NADH: acceptor oxidoreductase); test: Complex I Enzyme Activity Microplate Assay (diaphorase); format: biochemical, bovine; conditions: 200 and 800 μM
Procedure: To assess if α-KB can affect the diaphorase (NADH: acceptor oxidoreductase) activity of Complex I, the Complex I Enzyme Activity Microplate Assay Kit (Abcam, ab109721) was used. The assay was performed according to the protocol provided. Bovine Heart Mitochondria lysate (Abcam, ab110338) was added with detergent, followed by incubation on ice for 30 minutes to release Complex I and then centrifuged at 12,000 g, 4° C. for 20 minutes. Supernatant was collected and diluted with the buffer provided and then added to a Complex I antibody-coated 96-well plate. After a 3 hour incubation followed by 2× wash with stabilizer buffer, the wells were added with 200 μL of reaction mix containing 50, 200, or 800 μM α-KB or vehicle control (distilled water). Each condition was performed in triplicates. Kinetic measurements of absorbance at 450 nm with 1 minute intervals were taken, and Complex I diaphorase activity was calculated from the slope of the absorbance to time. The readings were normalized to vehicle mean (as 100 percent).

[2] = biological target: T1, pyruvate dehydrogenase (Bos taurus, UniProt A7MB35+P11966); test: Pyruvate Dehydrogenase (PDH) Enzyme Activity Microplate Assay; format: biochemical, bovine; conditions: vehicle mean as 100 percent
T1 construct: purchased Abcam ab110338 (lysate); ab109902 (assay kit); host or cells: bovine heart mitochondrial lysate
T1 sequence (A7MB35 30-390): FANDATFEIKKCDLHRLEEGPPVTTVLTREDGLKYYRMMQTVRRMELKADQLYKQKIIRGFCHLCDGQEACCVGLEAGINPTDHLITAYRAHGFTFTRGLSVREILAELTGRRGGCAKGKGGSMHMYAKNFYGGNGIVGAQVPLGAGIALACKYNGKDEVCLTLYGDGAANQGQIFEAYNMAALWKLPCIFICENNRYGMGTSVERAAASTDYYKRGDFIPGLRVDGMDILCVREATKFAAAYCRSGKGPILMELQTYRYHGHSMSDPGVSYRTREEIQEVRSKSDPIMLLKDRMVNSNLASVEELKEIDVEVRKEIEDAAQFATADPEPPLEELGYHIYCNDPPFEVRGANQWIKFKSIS
T1 sequence (P11966 31-359): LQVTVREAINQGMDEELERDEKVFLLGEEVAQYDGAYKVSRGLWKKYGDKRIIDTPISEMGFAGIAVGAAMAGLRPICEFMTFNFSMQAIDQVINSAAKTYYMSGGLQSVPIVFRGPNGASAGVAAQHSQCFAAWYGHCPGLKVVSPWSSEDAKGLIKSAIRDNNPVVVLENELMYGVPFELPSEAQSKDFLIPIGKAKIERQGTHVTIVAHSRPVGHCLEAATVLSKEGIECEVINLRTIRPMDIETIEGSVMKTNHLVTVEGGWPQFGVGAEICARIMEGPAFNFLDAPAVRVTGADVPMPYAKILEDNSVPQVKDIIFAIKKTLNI
T1 sequence (P11180 87-647 partner): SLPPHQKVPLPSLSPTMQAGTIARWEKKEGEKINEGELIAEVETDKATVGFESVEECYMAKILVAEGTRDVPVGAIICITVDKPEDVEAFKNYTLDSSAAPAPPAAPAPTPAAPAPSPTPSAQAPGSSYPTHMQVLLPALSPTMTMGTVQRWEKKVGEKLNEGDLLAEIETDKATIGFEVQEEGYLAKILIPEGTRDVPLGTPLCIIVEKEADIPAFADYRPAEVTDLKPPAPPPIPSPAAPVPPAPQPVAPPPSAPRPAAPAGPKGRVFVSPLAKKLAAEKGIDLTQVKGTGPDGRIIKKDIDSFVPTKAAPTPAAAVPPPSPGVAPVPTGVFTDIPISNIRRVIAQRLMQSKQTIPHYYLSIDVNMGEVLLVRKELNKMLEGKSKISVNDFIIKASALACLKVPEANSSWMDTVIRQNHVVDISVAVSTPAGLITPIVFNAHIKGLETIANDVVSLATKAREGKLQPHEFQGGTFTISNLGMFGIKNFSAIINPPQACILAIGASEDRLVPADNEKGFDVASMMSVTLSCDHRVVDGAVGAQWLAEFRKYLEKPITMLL
T1 sequence (P22439 54-501 partner): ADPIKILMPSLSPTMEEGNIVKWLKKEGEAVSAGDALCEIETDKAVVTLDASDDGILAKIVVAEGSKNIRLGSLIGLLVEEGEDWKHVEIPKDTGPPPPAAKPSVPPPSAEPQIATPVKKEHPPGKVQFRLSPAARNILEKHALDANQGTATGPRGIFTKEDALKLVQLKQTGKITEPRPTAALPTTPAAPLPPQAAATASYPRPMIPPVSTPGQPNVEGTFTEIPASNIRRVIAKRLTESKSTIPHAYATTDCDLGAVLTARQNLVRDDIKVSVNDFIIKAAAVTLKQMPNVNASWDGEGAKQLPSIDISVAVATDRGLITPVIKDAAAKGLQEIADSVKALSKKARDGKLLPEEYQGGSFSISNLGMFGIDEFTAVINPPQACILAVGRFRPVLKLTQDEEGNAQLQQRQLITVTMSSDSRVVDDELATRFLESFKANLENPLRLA
T1 sequence (F1N206 36-509 partner): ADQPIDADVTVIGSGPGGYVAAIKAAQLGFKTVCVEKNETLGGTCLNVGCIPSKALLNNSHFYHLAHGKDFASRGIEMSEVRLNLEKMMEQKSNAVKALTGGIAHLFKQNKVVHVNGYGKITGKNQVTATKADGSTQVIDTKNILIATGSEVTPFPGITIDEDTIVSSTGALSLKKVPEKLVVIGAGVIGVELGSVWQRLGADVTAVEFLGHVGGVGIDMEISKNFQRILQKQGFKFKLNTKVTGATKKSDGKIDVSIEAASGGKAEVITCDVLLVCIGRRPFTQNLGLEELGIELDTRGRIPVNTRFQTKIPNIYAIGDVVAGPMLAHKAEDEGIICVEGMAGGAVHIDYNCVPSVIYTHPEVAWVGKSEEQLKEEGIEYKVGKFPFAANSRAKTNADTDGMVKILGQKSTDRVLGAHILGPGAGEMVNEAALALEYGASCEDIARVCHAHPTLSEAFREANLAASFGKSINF
Procedure: To examine the effect of α-KB on pyruvate dehydrogenase, the Pyruvate Dehydrogenase (PDH) Enzyme Activity Microplate Assay Kit (Abcam, ab109902) was used. The assay was performed according to the protocol provided. Detergent was added to bovine heart mitochondrial lysate (Abcam, ab110338) and followed by an incubation at 4° C. for 20 minutes to release PDH. The sample was then centrifuged at 14,000×g for 10 minutes. Supernatant was diluted with the incubation buffer and added to a PDH antibody-coated 96-well plate. After 3 hours incubation followed by 2× wash with stabilizer buffer, the wells were added with 200 μL of reaction mix containing 10, 20, 50, 200, and 800 μM α-KB or vehicle control (distilled water). Each condition was performed in triplicates. Kinetic measurements of absorbance at 450 nm with 1 minute intervals were taken, and PDH activity was calculated from the slope of the absorbance to time. The readings were normalized to vehicle mean (as 100 percent).

[3] = test system: ATP synthase; test: ATP synthase inhibition
[4] = test system: Isolated hearts; test: Isolated heart ischemia and reperfusion (LVDP); conditions: 30 minutes ischemia, 60 minutes reperfusion, post-ischemic administration
Procedure: Isolated hearts were subjected to 30 minutes ischemia followed by 60 minutes of reperfusion with control buffer, 2-KB, (R)-2-hydroxybutyrate, (R)-3-hydroxybutyrate (also known as ketone body), α-KG, and the Complex I inhibitor rotenone. LVDP is shown as a function of time.

[5] = test system: cardiomyocytes of neonatal rats; test: Catecholamine (ISO, PE) induced hypertrophy of cardiomyocytes; format: cell-based, rat; conditions: 1 mM
From the text: In additional experiments, cardiomyocytes of neonatal rats were isolated by collagenase digestion and cultured overnight in DMEM containing 10% FCS, and then culture medium was changed to serum-free high glucose DMEM with supplement of ITS (insulin, transferrin, and sodiumselenite).
Catecholamine-induced cardiac hypertrophy.

## CCC(=O)C(=O)O [α-KB, α-ketobutyrate]
[1]
  Complex I diaphorase activity: directly inhibits
[2]; 200 μM
  normalized PDH activity (percentage): 68.0±11.8 percentage
[2]; 800 μM
  normalized PDH activity (percentage): 41.6±7.89 percentage
[3]
  inhibition of ATP synthase: does not inhibit
[4]
  heart function after ischemia (LVDP): restores heart function after ischemia
[5]
  induced overexpression of ANF and BNP: suppressed
[5]; 48 hours
  ISO- and PE-induced hypertrophy: completely abolished
